Data on one molecule can be found in patent US20100222394A1, “METHOD FOR PRODUCING PYRAZOL-3-YL-BENZAMIDE DERIVATIVE” (priority 2007, published 2010).

Structures are written as SMILES.

A short description of series [1]: Thermogravimetric analysis. Conditions: flow of nitrogen, heating rate 10° C./min. It counts as physicochemical. The procedure: (§1) A Perkin Elmer model TG 7 or equivalent instrument is used. Experiments are performed under a flow of nitrogen and using a heating rate 10° C./min to a maximum temperature of 500° C. Approximately 10 mg of sample is added to the platinum pan. Weight/temperature data are collected automatically by the instrument. Compound 9 doesn't show obvious weight loss until 180° C.

Series [2] concerns the target recombinant human liver GK (Homo sapiens, UniProt P35557). Kind of series: biochemical. Set-up: Emax: dose or concentration left out as unconfirmed. The text has this:
The glucokinase activity may be determined not by directly measuring glucose-6-phosphate but by measuring the level of Thio-NADH, which is produced when a reporter enzyme, glucose-6-phosphate dehydrogenase produces phosphogluconolactone from glucose-6-phosphate, and based on the level, the degree of glucokinase activity of the compound tested may be determined.
In this assay, used was a recombinant human liver GK, which was expressed by E. coli as a FLAG fusion protein therein and was purified by […] M2 AFFINITY GEL (Sigma).
69 μl of an assay buffer (25 mM Hepes Buffer/pH=7.2, 2 mM MgCl2, 1 mM ATP, 0.5 mM TNAD, 1 mM dithiothreitol) was put into the plate, and 1 μl of a DMSO solution of the compound or DMSO alone as a control was added thereto. Next, 20 μl of an enzyme mixture (FLAG-GK, 20 U/ml G6PDH) cooled in ice was added to it, and 10 μl of a substrate, 25 mM glucose was added to it, and the reaction was initiated (final glucose concentration=2.5 mM).
The OD level of the DMSO control was set as 100%; and the OD level of the test compound at different concentrations was determined. From the OD level at each concentration, Emax (%) and EC50 (μM) were computed and used as the index of the GK-activating potency of the compound.

Series [3] can be described thus: Solid-state properties of the crystal compared to the amorphous form (from thermogravimetric analysis and X-ray powder diffraction). It counts as physicochemical. Conditions: compared to amorphous form of the free benzamide of patent document 1. The procedure:
as §1
Obtain the X-ray diffraction pattern of a finely-powdered, randomly orientated sample, using copper K alpha X-radiation from 4 to 40 theta.
Bruker powder X-ray diffractometer D8ADVANCE (at 2 kW) (bull car ray X id bull car ray X id Co., Ltd.) is used, and a powder X-ray diffraction experiment was done.

Sequence of recombinant human liver GK (P35557 1-466 isoform P35557-2): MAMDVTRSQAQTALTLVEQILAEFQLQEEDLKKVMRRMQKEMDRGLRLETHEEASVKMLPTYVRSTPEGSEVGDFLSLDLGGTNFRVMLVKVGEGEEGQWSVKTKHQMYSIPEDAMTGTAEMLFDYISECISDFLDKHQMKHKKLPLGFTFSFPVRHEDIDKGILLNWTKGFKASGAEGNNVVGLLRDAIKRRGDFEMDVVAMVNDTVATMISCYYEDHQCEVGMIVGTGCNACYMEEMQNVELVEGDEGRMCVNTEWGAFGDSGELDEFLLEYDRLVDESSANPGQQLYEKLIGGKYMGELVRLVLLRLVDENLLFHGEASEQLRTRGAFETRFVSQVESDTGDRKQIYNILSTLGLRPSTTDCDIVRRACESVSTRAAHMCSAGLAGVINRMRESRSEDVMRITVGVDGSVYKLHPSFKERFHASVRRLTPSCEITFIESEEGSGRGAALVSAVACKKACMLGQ

Take `CCS(=O)(=O)c1ccc(Oc2cc(O[C@@H](C)CO)cc(C(=O)Nc3ccn(C)n3)c2)cn1.CS(=O)(=O)O` [3-(6-ethanesulfonylpyridin-3-yloxy)-5-((1S)-2-hydroxy-1-methyl-ethoxy)-N-(1-methyl-1H-pyrazol-3-yl)benzamide methanesulfonate]: the “temperature until which no obvious weight loss is shown” value in series [1] was at least 180 °C. Moreover, in series [2], the EC50 came to 30 nM and the maximum response (Emax) was 828%. Moreover, in series [3], the hygroscopicity result is on record as “less hygroscopicity” and the physical stability result was “stability physically”.

Usually EC50 stands for the concentration giving half of the maximal effect. Broadly, the Emax is the greatest response seen or fitted, relative to the assay's reference.
